The source of these data is publication PMC11891579, “Fluorescent PyrAte-(S)-citalopram conjugates enable imaging of the serotonin transporter in living tissue” (Chemical Science, 2025).

The target in test [1] is T1, SERT (Homo sapiens, UniProt P31645).
T1 construct: expressed in transfected cells
Description: radioligand binding assay, [3H]-imipramine competition in SERT-containing membrane fractions. The conditions noted are these: 3 nM [3H]-imipramine; membranes of HEK293 YhSERT; mean ± SD of three experiments; Cheng-Prusoff; read-out: Ki, competitive binding with imipramine. As for the experimental part:
(§1) ten minutes (for [3H]MPP+), by exchange of the substrate-containing buffer with 0.2 mL ice-cold KHB.
The KHB was aspirated immediately. Cells were lysed and prepared for [3H] content analysis by adding 0.2 mL Ultima Gold™ XR liquid scintillation cocktail. […]
microplate liquid scintillation counter. Non-specific uptake was determined in the presence of 30 µM paroxetine (for YhSERT), 50 µM GBR12909 (for YhDAT and hNET), or 100 µM decynium-22 (for YhOCT3).
For radioligand binding assays, membranes were first prepared from HEK293 cells stably expressing YhSERT. Cells were harvested from dishes using a plastic scraper and ice-cold PBS. Cells were recovered as a pellet after centrifugation (400× g) for 10 min at 4°C, and then re-suspended in HME buffer. The cell suspension was frozen rapidly by immersing in liquid N2, and then immediately thawed and sonicated for three 12 pulses/min cycles. Membrane fractions were collected after centrifugation at 40000× g for 15 minutes, and then re-suspended in HME buffer. Protein concentration was determined using Coomassie Brilliant Blue kit (BioRad Laboratories, California, USA). The binding reactions were carried out in a final volume of 0.25 mL B2 buffer containing 15 µg membranes, 3 nM

Test [2] concerns the target T1, SERT. Description: whole-cell patch clamp of 5-HT-mediated currents in SERT-expressing HEK293 cells. The class given is cell-based. As for the experimental part: as §1
The KHB was aspirated immediately. Cells were lysed and prepared for [3H] content analysis by adding 0.2 mL Ultima Gold™ XR liquid scintillation cocktail. Measurements were performed in a 1450 MicroBeta microplate liquid scintillation counter. Non-specific uptake was determined in the presence of 30 µM paroxetine (for YhSERT), 50 µM GBR12909 (for YhDAT and hNET), or 100 µM decynium-22 (for YhOCT3).
For radioligand binding assays, membranes were first prepared from HEK293 cells stably expressing YhSERT. Cells were harvested from dishes using a plastic scraper and ice-cold PBS. Cells were recovered as a pellet after centrifugation (400× g) for 10 min at 4°C, and then re-suspended in HME buffer. […] Protein concentration was determined using Coomassie Brilliant Blue kit (BioRad Laboratories, California, USA). […] The amount of radioactivity in the filters was measured using a Tri-Carb 2800TR liquid scintillation analyzer (PerkinElmer). The Ki was calculated from the measured IC50 using the Cheng-Prusoff equation.
Prior to imaging, cell culture medium was replaced with pre-warmed KHB. […] PyrAtes were excited using a 405 nm laser, and its fluorescent signals collected using 525/50 nm emission filters; mCherry was excited using a 561 nm laser, and fluorescence was collected using 595/50 nm emission filters. […]
A general note: Patch clamp records ionic current or voltage across a cell membrane.

T1 sequence (P31645 whole entry): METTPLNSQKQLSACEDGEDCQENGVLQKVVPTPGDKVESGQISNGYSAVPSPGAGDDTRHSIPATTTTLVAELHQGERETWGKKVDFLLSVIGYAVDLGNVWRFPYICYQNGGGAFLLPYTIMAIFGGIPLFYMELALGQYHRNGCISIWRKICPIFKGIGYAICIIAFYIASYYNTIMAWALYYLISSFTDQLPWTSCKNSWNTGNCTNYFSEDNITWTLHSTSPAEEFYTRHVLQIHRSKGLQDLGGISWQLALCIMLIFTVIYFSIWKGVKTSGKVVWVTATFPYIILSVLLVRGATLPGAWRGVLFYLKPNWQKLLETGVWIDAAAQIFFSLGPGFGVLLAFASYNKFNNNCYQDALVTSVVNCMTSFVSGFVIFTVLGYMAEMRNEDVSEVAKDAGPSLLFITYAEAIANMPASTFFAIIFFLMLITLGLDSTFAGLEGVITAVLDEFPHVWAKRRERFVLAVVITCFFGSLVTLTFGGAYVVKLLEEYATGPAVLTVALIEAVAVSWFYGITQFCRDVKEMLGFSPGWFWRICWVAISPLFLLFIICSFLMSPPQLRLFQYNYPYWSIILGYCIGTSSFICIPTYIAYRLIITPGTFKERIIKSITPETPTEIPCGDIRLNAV

On to `CCN(CC)c1ccc(-c2cc[n+]3c(-c4ccccc4)c(N4CCCC4)n(CCCCCCC(=O)NCc4ccc5c(c4)CO[C@@]5(CCCN(C)C)c4ccc(F)cc4)c3c2)cc1` [PYR-C6-CIT, PyrAte-C6-(S)-citalopram], for which the Ki at SERT [1] turned out to be 0.11 ± 0.07 µM. For the same compound, the “ratio of 5-HT-mediated currents before and after application (current reduced to)” value at SERT [2] (1 μM compound, 10 µM 5HT, N = 6) is 47%. In addition, the inhibition at 1 µM at SERT [2] (HEK293, read-out: inhibition of 5-HT-mediated currents, 1 μM concentration) is ~50%.

In general, Ki refers to the equilibrium dissociation constant of an inhibitor or competing ligand from its target. For orientation: inhibition means the drop in the measured response relative to a control, in per cent.
